In US11000511B2, “Chemical compounds as antibiotics” (priority 2017, dated 2021) one finds Ki and inhibition data, which are given here for 22 compounds.

One may read the Ki as a measure of affinity in units of concentration, obtained from inhibition or displacement.

Assay [1] addresses T1, purified LasB protein from P. aeruginosa (Pseudomonas aeruginosa, UniProt P14756).
T1 construct: purchased Merck or Charles River Laboratories
Briefly: Fluorometric assay to determine Ki (Assay 1). It is filed as biochemical. As to conditions: Ki (μM) Assay 1, purified LasB, substrate Abz-Ala-Gly-Leu-Ala-p-Nitro-Benzyl-Amide 250 μM, Ki calculated from IC50; inhibitor 0.006 to 200 μM. As to the method: (§1) Experiments were therefore conducted (1) to measure the potency of inhibition of compounds of the invention against purified Pseudomonas aeruginosa LasB enzyme and also experiments were conducted (2) to measure the ability of compounds of the invention to inhibit LasB-catalysed elastin degradation. The first assay uses a commercial fluorescent synthetic peptide and purified LasB enzyme. The LasB hydrolysis kinetics are measured allowing the determination of the IC50 and Ki of the inhibitors; the second is a more physiological assay using dialysed Pseudomonas aeruginosa supernatant as source of enzyme, plus its natural substrate Elastin. It is an “end point assay” that determines the percentage of LasB inhibition by each compound for one particular time point and inhibitor concentration. Technical details are described below:
This assay uses commercially available substrate (Abz-Ala-Gly-Leu-Ala-p-Nitro-Benzyl-Amide (Ex: 340 nm, Em: 415 nm) from Peptide International) and purified LasB protein from P. aeruginosa (provided by Merck or Charles River Laboratories). It is performed to determine LasB elastase activity and assess compound inhibition in 96-well plate format. Some compounds of Formula (I) were assessed using the method of Assay 1 (described below). Other compounds of Formula (I) were assessed using the alternative but equivalent method of Assay 2 (described below).
Method: 10 to 140 ng/ml purified LasB is incubated with 250 μM Abz-Ala-Gly-Leu-Ala-p-Nitro-Benzyl-Amide in 50 mM Tris-HCl pH 7.4, 2.5 mM CaCl2), 0.01% of Triton X100 at 37° C. LasB activity (corresponding to fluorescence emission induced by substrate hydrolysis) is measured over 30 min at 37° C. with a fluorescence plate reader such as the Perkin Elmer Envision or similar. Different range of inhibitor concentrations are routinely assessed depending of inhibitor potency from 0.006 to 200 μM (Assay 1; 2-fold dilutions series) or from 0.0016 to 200 μM (Assay 2; 2-fold dilutions series) in order to determine IC50.
The equation used to calculate the Ki from IC50 is: Ki=IC50/(1+([S]/Km)) where [S]=250 μM and Km=214 μM.

Assay [2] addresses T2, LasB elastase activity in dialysed supernatant from P. aeruginosa strain PA01 (Pseudomonas aeruginosa, UniProt P14756).
T2 construct: uses as source of enzyme dialysed supernatant from P. aeruginosa; endogenous in cells; host or cells: P. aeruginosa strain PA01 culture supernatant, filtered and dialysed
Briefly: Elastin Congo Red assay to determine % inhibition (Assay 1). It is filed as biochemical. The following applies: read-out: Elastin hydrolysis % inhibition @ 50/25 μM inhibitor concentration Assay 1. As to the method: as §1
The Elastin assay uses as source of enzyme dialysed supernatant from P. aeruginosa and the elastin congo red as substrate. The natural LasB substrate, elastin, is complexed with the congo red dye (Elastin Congo Red, ECR). The elastolysis activity from the culture supernatant will degrade elastin and release the congo red dye into the supernatant. This red dye release can be measured with a spectrophotometer. Some compounds of Formula (I) were assessed using the method of Assay 1 (described below). Other compounds of Formula (I) were assessed using the alternative but equivalent method of Assay 2 (described below).
Method (Assay 1): To determine LasB elastase activity and assess compound inhibition, an overnight culture of P. aeruginosa strain PA01 is diluted thousand-fold in LB medium. This diluted solution is incubated during 19 hours in a shaking incubator. Culture supernatants are recovered by centrifugation and filtrated through a […] filter. These supernatants are dialysed (filtration molecules <20 kDa) into a 50 mM Tris pH 7.4, 2.5 mM CaCl2 solution at 4° C. under agitation for 24 hours. Supernatant dialysed is then mixed volume/volume with the ECR suspension (20 mg/mL of ECR in 100 mM Tris buffer supplemented with 1 mM CaCl2) supplemented with TritonX 100 (final concentration of 0.01%) in presence of different concentrations of compound (routinely 50 and 25 μM). The mixed reaction is then incubated for 24 hours in a 37° shaking incubator. As a negative control, the mixed supernatant is replaced by Tris solution (50 mM Tris pH 7.4, 2.5 mM CaCl2). The reaction supernatant is recovered by centrifugation and the release of congo red is measured by its absorbance at OD520. Percentage inhibition is determined using the following equation: (OD520 value of DMSO SN−OD520 value of LB)−(OD520 value of Compound SN−OD520 value of LB)/(OD520 value of DMSO SN−OD520 value of LB)×100.

Bounds are passed on as bounds.

T2 sequence (P14756 198-498): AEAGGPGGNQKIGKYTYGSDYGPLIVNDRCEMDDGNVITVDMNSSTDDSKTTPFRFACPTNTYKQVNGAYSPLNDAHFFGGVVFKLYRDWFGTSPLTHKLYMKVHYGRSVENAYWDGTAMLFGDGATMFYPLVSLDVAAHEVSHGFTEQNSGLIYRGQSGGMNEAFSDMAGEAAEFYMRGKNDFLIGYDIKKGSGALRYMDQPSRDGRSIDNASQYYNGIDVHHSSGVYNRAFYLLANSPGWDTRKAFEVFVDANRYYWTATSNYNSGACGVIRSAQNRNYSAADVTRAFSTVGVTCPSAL
T1 sequence (P14756 198-498): as above

As to `NCCCc1ccc2sc(CNC(=O)C3(CC(=O)O)Cc4ccccc4C3)nc2c1` [Example 40, 2-[2-[[5-(3-aminopropyl)-1,3-benzothiazol-2-yl]methylcarbamoyl]indan-2-yl]acetic acid], in assay [1], the Ki is less than 0.3 µM. Moreover, the inhibition at 50 µM in assay [2] is greater than 60%.

As for `O=C(O)CC1(C(=O)NCc2nc3ccc(N4CCNCC4)cc3s2)Cc2ccccc2C1` [Example 41, 2-[2-[(6-piperazin-1-yl-1,3-benzothiazol-2-yl)methylcarbamoyl]indan-2-yl]acetic acid], the Ki in assay [1] was 0.3 to 2 µM. Also, the inhibition at 50 µM in assay [2] was 30 to 60%.

For `CN1CCN(c2ccc3nc(CNC(=O)C4(CC(=O)O)Cc5ccccc5C4)sc3c2)CC1` [Example 42, 2-[2-[[6-(4-methylpiperazin-1-yl)-1,3-benzothiazol-2-yl]methylcarbamoyl]indan-2-yl]acetic acid], the Ki in assay [1] is 0.3 to 2 µM. Besides, the inhibition at 50 µM in assay [2] was greater than 60%.

As for `C[N+]1(C)CCN(c2ccc3nc(CNC(=O)C4(CC(=O)O)Cc5ccccc5C4)sc3c2)CC1` [Example 43, 2-[2-[[6-(4,4-dimethylpiperazin-4-ium-1-yl)-1,3-benzothiazol-2-yl]methylcarbamoyl]indan-2-yl]acetic acid], in assay [1], the Ki was 0.3 to 2 µM. Further, the inhibition at 50 µM in assay [2] fell in the range of 30 to 60%.

As for `O=C(O)CC1(C(=O)NCc2nc3c(s2)CNCC3)Cc2ccccc2C1` [Example 44, 2-[2-(4,5,6,7-tetrahydrothiazolo[5,4-c]pyridin-2-ylmethylcarbamoyl)indan-2-yl]acetic acid], the inhibitory constant (Ki) in assay [1] was 2 to 10 µM. The inhibition at 50 µM in assay [2] lay in the range of 15 to 30%.

Take `CN1CCC(OC(=O)[C@H](Cc2c[nH]c3ccccc23)NC(=O)C2(CC(=O)O)Cc3ccccc3C2)CC1` [Example 45, 2-(2-{[(2S)-3-(1H-indol-3-yl)-1-[(1-methylpiperidin-4-yl)oxy]-1-oxopropan-2-yl]carbamoyl}-2,3-dihydro-1H-inden-2-yl)acetic acid]: the Ki in assay [1] was less than 0.3 µM. In addition, the inhibition at 50 µM in assay [2] is greater than 60%.

Turning to `C[N+](C)(C)CCNC(=O)[C@H](Cc1c[nH]c2ccccc12)NC(=O)C1(CC(=O)O)Cc2ccccc2C1` [Example 46, (2-{[(1S)-2-(1H-indol-3-yl)-1-{[2-(trimethylammonio)ethyl]carbamoyl}ethyl]carbamoyl}-1,3-dihydroinden-2-yl)acetate], the Ki in assay [1] was 2 to 10 µM. For the same compound, the inhibition at 50 µM in assay [2] lay in the range of 30 to 60%.

On to `CC(C)(C)OC(=O)[C@H](Cc1c[nH]c2ccccc12)NC(=O)C1(CC(=O)O)Cc2ccccc2C1` [Example 47, (S)-2-(2-((1-(tert-butoxy)-3-(1H-indol-3-yl)-1-oxopropan-2-yl)carbamoyl)-2,3-dihydro-1H-inden-2-yl)acetic acid], for which the inhibition constant (Ki) in assay [1] is less than 0.3 µM. Further, the inhibition at 50 µM in assay [2] is greater than 60%.

Turning to `NC(=O)[C@H](Cc1ccc(O)cc1)NC(=O)C1(CC(=O)O)Cc2ccccc2C1` [Example 48, (S)-2-(2-((1-amino-3-(4-hydroxyphenyl)-1-oxopropan-2-yl)carbamoyl)-2,3-dihydro-1H-inden-2-yl)acetic acid], in assay [1], the Ki was 2 to 10 µM. In addition, in assay [2], the inhibition at 50 µM fell in the range of 30 to 60%.

Consider `O=C(O)CC1(C(=O)N[C@@H](Cc2ccc(O)cc2)C(=O)O)Cc2ccccc2C1` [Example 49, (2-(carboxymethyl)-2,3-dihydro-1H-indene-2-carbonyl)-L-tyrosine], for which the Ki in assay [1] is 0.3 to 2 µM. Further, the inhibition at 50 µM in assay [2] is greater than 60%.

On to `O=C(O)CC1(C(=O)N[C@@H](Cc2c[nH]c3ccccc23)C(=O)O)Cc2ccccc2C1` [Example 50, (2-(carboxymethyl)-2,3-dihydro-1H-indene-2-carbonyl)-L-tryptophan], for which the Ki in assay [1] was less than 0.3 µM. Moreover, the inhibition at 50 µM in assay [2] was greater than 60%.

On to `O=C(O)CC1(C(=O)NCc2nc3ccccc3[nH]2)Cc2ccccc2C1` [Example 51, 2-(2-(((1H-benzo[d]imidazol-2-yl)methyl)carbamoyl)-2,3-dihydro-1H-inden-2-yl)acetic], for which the Ki in assay [1] was 2 to 10 µM. The inhibition at 50 µM in assay [2] fell in the range of 15 to 30%.

Take `NC(=O)[C@H](Cc1c[nH]c2ccccc12)NC(=O)C1(CC(=O)O)Cc2ccccc2C1` [Example 52, (S)-2-(2-((1-amino-3-(1H-indol-3-yl)-1-oxopropan-2-yl)carbamoyl)-2,3-dihydro-1H-inden-2-yl)acetic acid]: in assay [1], the Ki is less than 0.3 µM. The inhibition at 50 µM in assay [2] is greater than 60%.

On to `COC(=O)[C@H](Cc1c[nH]c2ccccc12)NC(=O)C1(CC(=O)O)Cc2ccccc2C1` [Example 53, (S)-2-(2-((3-(1H-indol-3-yl)-1-methoxy-1-oxopropan-2-yl)carbamoyl)-2,3-dihydro-1H-inden-2-yl)acetic acid], for which the inhibitory constant (Ki) in assay [1] was 0.3 to 2 µM. The inhibition at 50 µM in assay [2] was greater than 60%.

Consider `O=C(O)CC1(C(=O)NCc2nccs2)Cc2ccccc2C1` [Example 54, 2-(2-((thiazol-2-ylmethyl)carbamoyl)-2,3-dihydro-1H-inden-2-yl)acetic acid], for which, in assay [1], the inhibitory constant (Ki) was 0.3 to 2 µM. The inhibition at 50 µM in assay [2] was greater than 60%.

`O=C(O)CC1(C(=O)NCc2ccc3ccccc3n2)Cc2ccccc2C1` [Example 55, 2-(2-((quinolin-2-ylmethyl)carbamoyl)-2,3-dihydro-1H-inden-2-yl)acetic acid]: the Ki in assay [1] is 0.3 to 2 µM. Besides, in assay [2], the inhibition at 50 µM was greater than 60%.

In the case of `Cn1c(CNC(=O)C2(CC(=O)O)Cc3ccccc3C2)nc2ccccc21` [Example 56, 2-(2-(((1-methyl-1H-benzo[d]imidazol-2-yl)methyl)carbamoyl)-2,3-dihydro-1H-inden-2-yl)acetic acid], the Ki in assay [1] is 0.3 to 2 µM. In addition, the inhibition at 50 µM in assay [2] lay within 30 to 60%.

For the compound `O=C(O)CC1(C(=O)NCc2coc3ccccc23)Cc2ccccc2C1` [Example 57, 2-[2-(benzofuran-3-ylmethylcarbamoyl)indan-2-yl]acetic acid], the Ki in assay [1] was 0.3 to 2 µM. For the same compound, in assay [2], the inhibition at 50 µM lay in the range of 30 to 60%.

Regarding `O=C(O)CC1(C(=O)NCc2nc3c(F)cccc3s2)Cc2ccccc2C1` [Example 60, 2-(2-(((4-fluorobenzo[d]thiazol-2-yl)methyl)carbamoyl)-2,3-dihydro-1H-inden-2-yl)acetic acid], the Ki in assay [1] was less than 0.3 µM. For the same compound, in assay [2], the inhibition at 50 µM is greater than 60%.

On to `O=C(O)CC1(C(=O)NCc2nc3c(Br)cccc3s2)Cc2ccccc2C1` [Example 61, 2-(2-(((4-bromobenzo[d]thiazol-2-yl)methyl)carbamoyl)-2,3-dihydro-1H-inden-2-yl)acetic acid], for which the Ki in assay [1] was less than 0.3 µM. In addition, the inhibition at 50 µM in assay [2] is greater than 60%.

As to `COc1cccc2sc(CNC(=O)C3(CC(=O)O)Cc4ccccc4C3)nc12` [Example 62, 2-(2-(((4-methoxybenzo[d]thiazol-2-yl)methyl)carbamoyl)-2,3-dihydro-1H-inden-2-yl)acetic acid], the Ki in assay [1] was less than 0.3 µM. Also, the inhibition at 50 µM in assay [2] was greater than 60%.

Take `O=C(O)CC1(C(=O)NCc2nc3c(I)cccc3s2)Cc2ccccc2C1` [Example 63, 2-(2-(((4-iodobenzo[d]thiazol-2-yl)methyl)carbamoyl)-2,3-dihydro-1H-inden-2-yl)acetic acid]: the Ki in assay [1] was less than 0.3 µM. In addition, the inhibition at 50 µM in assay [2] was greater than 60%.
